From publication PMC11995724, “Antibiotic target discovery by integrated phenotypic and activity-based profiling of electrophilic fragments” (Cell chemical biology, 2025)

Experiment: in vitro
Conditions: human, hek293t cells

| SMILES | viability at 48 h, 25 µM [%] |
| --- | --- |
| C=CC(=O)Nc1cn(CCC)cn1 [3-B10, N-(1-propyl-1H-imidazol-4-yl)prop-2-enamide] | 91.1 |
| C=CC(=O)N[C@H](C)c1cnnn1C [3-B11, N-[(1R)-1-(1-methyl-1H-1,2,3-triazol-5-yl)ethyl]prop-2-enamide] | 73.8 |
| C=CC(=O)N1CCC(C(=O)NCc2nc(C)c(C)s2)CC1 [3-B12, N-[(4,5-dimethyl-1,3-thiazol-2-yl)methyl]-1-(prop-2-enoyl)piperidine-4-carboxamide] | 87.5 |
| C=CC(=O)NC(C)c1ccc(-n2ccnn2)cc1 (stereo not drawn) [3-B13, N-{1-[4-(1H-1,2,3-triazol-1-yl)phenyl]ethyl}prop-2-enamide] | 59.2 |
| C=CC(=O)N1CCC(C(=O)N[C@@H]2C[C@H]2c2ccc(Cl)c(F)c2)CC1 [3-B14, N-[(1R,2S)-2-(4-chloro-3-fluorophenyl)cyclopropyl]-1-(prop-2-enoyl)piperidine-4-carboxamide] | 78.3 |
| C=CC(=O)Nc1ccc(C(=O)N2CCC(C(C)C)CC2)cc1 [3-B15, N-{4-[4-(propan-2-yl)piperidine-1-carbonyl]phenyl}prop-2-enamide] | 27.5 |
| C=CC(=O)N1CCn2c(cnc2C(F)(F)F)C1 [3-B16, 1-[3-(trifluoromethyl)-5H,6H,7H,8H-imidazo[1,5-a]pyrazin-7-yl]prop-2-en-1-one] | 81.8 |
| C=CC(=O)NCC1CCN(c2ccccc2)C1 (stereo not drawn) [3-B17, N-[(1-phenylpyrrolidin-3-yl)methyl]prop-2-enamide] | 66.8 |
| C=CC(=O)NCc1ccnc(-n2cncn2)c1 [3-B18, N-{[2-(1H-1,2,4-triazol-1-yl)pyridin-4-yl]methyl}prop-2-enamide] | 92.7 |
| C=CC(=O)NCc1cc(C(F)(F)C(F)(F)F)on1 [3-B19, N-{[5-(1,1,2,2,2-pentafluoroethyl)-1,2-oxazol-3-yl]methyl}prop-2-enamide] | 48.4 |
| C=CC(=O)NCc1noc2c1CCCC2 [3-B20, N-[(4,5,6,7-tetrahydro-1,2-benzoxazol-3-yl)methyl]prop-2-enamide] | 74.4 |
| C=CC(=O)NCCNC(=O)c1cc2ccccc2[nH]1 [3-B21, N-{2-[(1H-indol-2-yl)formamido]ethyl}prop-2-enamide] | 63.1 |
| C=CC(=O)N1CCc2nn(C(C)C)c(=O)cc2C1 [3-B22, 6-(prop-2-enoyl)-2-(propan-2-yl)-2H,3H,5H,6H,7H,8H-pyrido[4,3-c]pyridazin-3-one] | 87.7 |
| C=CC(=O)N1CCC(n2cnc3ccccc3c2=O)C1 (stereo not drawn) [3-C03, 3-[1-(prop-2-enoyl)pyrrolidin-3-yl]-3,4-dihydroquinazolin-4-one] | 63.6 |
| C=CC(=O)N(C)CC(=O)N1CCc2cc(OC)c(OC)cc2C1C (stereo not drawn) [3-C04, N-[2-(6,7-dimethoxy-1-methyl-1,2,3,4-tetrahydroisoquinolin-2-yl)-2-oxoethyl]-N-methylprop-2-enamide] | 84.6 |
| C=CC(=O)NCc1nc(-c2ccccc2)oc1C [3-C05, N-[(5-methyl-2-phenyl-1,3-oxazol-4-yl)methyl]prop-2-enamide] | 50.4 |
| C=CC(=O)N1CCC(C(=O)Nc2ccccc2NS(C)(=O)=O)CC1 [3-C06, N-(2-methanesulfonamidophenyl)-1-(prop-2-enoyl)piperidine-4-carboxamide] | 82.7 |
| C=CC(=O)N1CCC(C(=O)NC2CC2(C)C)CC1 (stereo not drawn) [3-C07, N-(2,2-dimethylcyclopropyl)-1-(prop-2-enoyl)piperidine-4-carboxamide] | 30.9 |
| C=CC(=O)N1CCn2c(nnc2C2CCCC2)C1 [3-C09, 1-{3-cyclopentyl-5H,6H,7H,8H-[1,2,4]triazolo[4,3-a]pyrazin-7-yl}prop-2-en-1-one] | 29.4 |
| C=CC(=O)Nc1ccc(C(=O)NC2CCN(C(C)C)C2=O)cc1 (stereo not drawn) [3-C10, N-[2-oxo-1-(propan-2-yl)pyrrolidin-3-yl]-4-(prop-2-enamido)benzamide] | 60.6 |
| C=CC(=O)NC(C)Cn1cncn1 (stereo not drawn) [3-C11, N-[1-(1H-1,2,4-triazol-1-yl)propan-2-yl]prop-2-enamide] | 37.9 |
| C=CC(=O)NCCC1CCCS1(=O)=O (stereo not drawn) [3-C12, N-[2-(1,1-dioxo-1lambda6-thiolan-2-yl)ethyl]prop-2-enamide] | 86.1 |
| C=CC(=O)N1CCOC(Cn2nc(C)cc2C)C1 (stereo not drawn) [3-C13, 1-{2-[(3,5-dimethyl-1H-pyrazol-1-yl)methyl]morpholin-4-yl}prop-2-en-1-one] | 40.5 |
| C=CC(=O)N[C@H]1C[C@H](C)S(=O)(=O)c2sccc21 [3-C14, N-[(2S,4S)-2-methyl-1,1-dioxo-2H,3H,4H-1lambda6-thieno[2,3-b]thiopyran-4-yl]prop-2-enamide] | 84.1 |
| C=CC(=O)N1CCC(C(=O)NCc2nnc(C(C)C)n2C)CC1 [3-C16, N-{[4-methyl-5-(propan-2-yl)-4H-1,2,4-triazol-3-yl]methyl}-1-(prop-2-enoyl)piperidine-4-carboxamide] | 78.5 |
| C=CC(=O)N1CCC(C(=O)N2CCC(C(=O)NCC(C)C)CC2)CC1 [3-C17, N-(2-methylpropyl)-1-[1-(prop-2-enoyl)piperidine-4-carbonyl]piperidine-4-carboxamide] | 34.6 |

| SMILES | viability at 48 h, 25 µM [%] |
| --- | --- |
| C=CC(=O)N1CCC(C(=O)NCCO)CC1 [3-C18, N-(2-hydroxyethyl)-1-(prop-2-enoyl)piperidine-4-carboxamide] | 72.9 |
| C=CC(=O)N1CCC(C(=O)N2Cc3ccccc3C[C@H]2C(N)=O)CC1 [3-C19, (3S)-2-[1-(prop-2-enoyl)piperidine-4-carbonyl]-1,2,3,4-tetrahydroisoquinoline-3-carboxamide] | 29.6 |
| C=CC(=O)N(C)CC(=O)N1CCCC(CC(N)=O)CC1 (stereo not drawn) [3-C20, N-{2-[4-(carbamoylmethyl)azepan-1-yl]-2-oxoethyl}-N-methylprop-2-enamide] | 68.6 |
| C=CC(=O)NCCNS(=O)(=O)c1cc(C)sc1C [3-C21, N-[2-(2,5-dimethylthiophene-3-sulfonamido)ethyl]prop-2-enamide] | 34.6 |
| C=CC(=O)NCc1cnoc1C [3-C22, N-[(5-methyl-1,2-oxazol-4-yl)methyl]prop-2-enamide] | 51.5 |
| C=CC(=O)N(CC)CC(=O)N1CCN(c2ccc(C#N)cc2F)CC1 [3-D03, N-{2-[4-(4-cyano-2-fluorophenyl)piperazin-1-yl]-2-oxoethyl}-N-ethylprop-2-enamide] | 74.4 |
| C=CC(=O)NCc1nc(-c2ccc(F)cc2)n[nH]1 [3-D04, N-{[3-(4-fluorophenyl)-1H-1,2,4-triazol-5-yl]methyl}prop-2-enamide] | 95.1 |
| C=CC(=O)Nc1cc(NC(=O)C2(OC)CCOC2)ccc1F (stereo not drawn) [3-D05, N-[4-fluoro-3-(prop-2-enamido)phenyl]-3-methoxyoxolane-3-carboxamide] | 75.8 |
| C=CC(=O)Nc1cn(CC(F)(F)F)nc1C [3-D06, N-[3-methyl-1-(2,2,2-trifluoroethyl)-1H-pyrazol-4-yl]prop-2-enamide] | 55.3 |
| C=CC(=O)NCCC(=O)N1CCN(c2ccc(C#N)cc2F)CC1 [3-D07, N-{3-[4-(4-cyano-2-fluorophenyl)piperazin-1-yl]-3-oxopropyl}prop-2-enamide] | 56.6 |
| C=CC(=O)NCCC(=O)NC1CCSc2ccc(F)cc21 (stereo not drawn) [3-D08, N-{2-[(6-fluoro-3,4-dihydro-2H-1-benzothiopyran-4-yl)carbamoyl]ethyl}prop-2-enamide] | 70.7 |
| C=CC(=O)NCc1cn(C2CCC2)nn1 [3-D09, N-[(1-cyclobutyl-1H-1,2,3-triazol-4-yl)methyl]prop-2-enamide] | 48.7 |
| C=CC(=O)NC(C)Cn1cc(C(=O)O)cn1 (stereo not drawn) [3-D10, 1-[2-(prop-2-enamido)propyl]-1H-pyrazole-4-carboxylic acid] | 96 |
| C=CC(=O)N(C)CC1(O)CCc2ccccc21 (stereo not drawn) [3-D11, N-[(1-hydroxy-2,3-dihydro-1H-inden-1-yl)methyl]-N-methylprop-2-enamide] | 58.6 |
| C=CC(=O)N1CCC(C(=O)NCc2cn3ccc(C)nc3n2)CC1 [3-D12, N-({7-methylimidazo[1,2-a]pyrimidin-2-yl}methyl)-1-(prop-2-enoyl)piperidine-4-carboxamide] | 75.3 |
| C#CCN(C(=O)c1ccc(NC(=O)C=C)cc1)C1CCCCC1 [3-D13, N-cyclohexyl-4-(prop-2-enamido)-N-(prop-2-yn-1-yl)benzamide] | 15.9 |
| C=CC(=O)NCc1ccc2oc(=O)[nH]c2c1 [3-D14, N-[(2-oxo-2,3-dihydro-1,3-benzoxazol-5-yl)methyl]prop-2-enamide] | 103 |
| C=CC(=O)N(C)CC(=O)N1CCCc2ccccc21 [3-D15, N-methyl-N-[2-oxo-2-(1,2,3,4-tetrahydroquinolin-1-yl)ethyl]prop-2-enamide] | 65.7 |
| C=CC(=O)Nc1cccc(NS(=O)(=O)C2CC2)c1 [3-D16, N-(3-cyclopropanesulfonamidophenyl)prop-2-enamide] | 80.5 |
| C=CC(=O)N1CCCC(S(=O)(=O)NC)C1 (stereo not drawn) [3-D17, N-methyl-1-(prop-2-enoyl)piperidine-3-sulfonamide] | 67.5 |
| C=CC(=O)N[C@H]1C[C@H](S(C)(=O)=O)C1 [3-D18, N-[(1r,3r)-3-methanesulfonylcyclobutyl]prop-2-enamide] | 83.6 |
| C=CC(=O)N1CCC=C(c2cn(C(C)C)nn2)CC1 [3-D19, 1-{4-[1-(propan-2-yl)-1H-1,2,3-triazol-4-yl]-2,3,6,7-tetrahydro-1H-azepin-1-yl}prop-2-en-1-one] | 78.1 |
| C=CC(=O)N1CCN(S(=O)(=O)CC)CC1 [3-D20, 1-[4-(ethanesulfonyl)piperazin-1-yl]prop-2-en-1-one] | 106 |
| C=CC(=O)NC(c1nc(C)cs1)C1CC1 (stereo not drawn) [3-D21, N-[cyclopropyl(4-methyl-1,3-thiazol-2-yl)methyl]prop-2-enamide] | 74.9 |
| C=CC(=O)N1CCCc2c(OCC(N)=O)cccc21 [3-D22, 2-{[1-(prop-2-enoyl)-1,2,3,4-tetrahydroquinolin-5-yl]oxy}acetamide] | 95.2 |
